Patent US10513521B2, “Compositions and methods for inhibiting BMP” (The Brigham and Women's Hospital, Inc., priority 2014, dated 2019)
Values joined by “and” are separate entries in the source; they are usually repeats but may differ in a detail not shown here. Equal values may be shown once. Read-outs that look alike come from different tables or passages of the source.

Legend:
[1] = molecular target: T1, ALK2 (Mus musculus, UniProt P37172); test: HTRF pSMAD1 cell-based ALK2 assay (C2C12 cells, BMP6 as agonist)
T1 construct: The C2C12 cell line was selected for the measurement of ALK2 activity using BMP6 as the agonist; host or cells: C2C12
T1 sequence (P37172 21-509): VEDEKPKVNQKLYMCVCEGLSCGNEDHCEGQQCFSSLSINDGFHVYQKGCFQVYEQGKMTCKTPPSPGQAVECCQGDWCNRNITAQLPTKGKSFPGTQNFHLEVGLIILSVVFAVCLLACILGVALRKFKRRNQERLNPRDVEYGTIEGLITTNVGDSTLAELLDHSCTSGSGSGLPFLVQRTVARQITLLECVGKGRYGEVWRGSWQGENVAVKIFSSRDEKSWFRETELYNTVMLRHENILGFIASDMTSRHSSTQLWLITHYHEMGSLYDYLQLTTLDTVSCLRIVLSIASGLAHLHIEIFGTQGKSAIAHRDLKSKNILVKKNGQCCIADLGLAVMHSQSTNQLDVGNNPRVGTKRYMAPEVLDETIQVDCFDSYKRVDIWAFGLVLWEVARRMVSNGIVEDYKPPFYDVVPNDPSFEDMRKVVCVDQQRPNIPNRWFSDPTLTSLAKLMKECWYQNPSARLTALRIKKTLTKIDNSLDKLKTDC
Method in brief: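 Phospho-SMAD1 HTRF readout, detection incubated overnight at room temperature. Before that: starved cells in 0.1% FBS for 4 h, 30 min compound pretreatment, then 30 min agonist, BMP6 on C2C12 or BMP9 on BAOEC.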

[2] = molecular target: T2, ALK4 (Homo sapiens, UniProt P36896); test: TR-FRET enzymatic ALK kinase assay, ALK4
T2 sequence (P36896 24-505): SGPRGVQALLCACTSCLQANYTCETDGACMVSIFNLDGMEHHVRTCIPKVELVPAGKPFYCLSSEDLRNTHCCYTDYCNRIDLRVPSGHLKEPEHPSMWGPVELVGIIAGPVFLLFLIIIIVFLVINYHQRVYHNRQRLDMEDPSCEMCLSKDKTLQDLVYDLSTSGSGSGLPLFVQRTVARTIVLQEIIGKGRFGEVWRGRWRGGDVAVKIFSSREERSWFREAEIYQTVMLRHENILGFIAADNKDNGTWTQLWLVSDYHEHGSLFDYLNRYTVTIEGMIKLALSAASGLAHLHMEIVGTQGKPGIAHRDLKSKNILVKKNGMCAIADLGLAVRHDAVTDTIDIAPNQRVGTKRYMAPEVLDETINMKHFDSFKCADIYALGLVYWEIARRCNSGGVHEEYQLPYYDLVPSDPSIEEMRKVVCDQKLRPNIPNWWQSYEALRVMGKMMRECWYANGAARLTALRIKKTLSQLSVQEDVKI
Description: (§1) Briefly, the ALKs enzymatic assay was initiated by dispense 2.5 μl enzyme in 1× kinase reaction buffer. The assay plate was then added with compounds followed by incubation at room temperature for 10 minutes. Then 2.5 μl/well substrate was added.

[3] = molecular target: ALK3 (Homo sapiens, UniProt P36894); test: TR-FRET enzymatic ALK kinase assay, ALK3
Chain of ALK3 (P36894 24-532): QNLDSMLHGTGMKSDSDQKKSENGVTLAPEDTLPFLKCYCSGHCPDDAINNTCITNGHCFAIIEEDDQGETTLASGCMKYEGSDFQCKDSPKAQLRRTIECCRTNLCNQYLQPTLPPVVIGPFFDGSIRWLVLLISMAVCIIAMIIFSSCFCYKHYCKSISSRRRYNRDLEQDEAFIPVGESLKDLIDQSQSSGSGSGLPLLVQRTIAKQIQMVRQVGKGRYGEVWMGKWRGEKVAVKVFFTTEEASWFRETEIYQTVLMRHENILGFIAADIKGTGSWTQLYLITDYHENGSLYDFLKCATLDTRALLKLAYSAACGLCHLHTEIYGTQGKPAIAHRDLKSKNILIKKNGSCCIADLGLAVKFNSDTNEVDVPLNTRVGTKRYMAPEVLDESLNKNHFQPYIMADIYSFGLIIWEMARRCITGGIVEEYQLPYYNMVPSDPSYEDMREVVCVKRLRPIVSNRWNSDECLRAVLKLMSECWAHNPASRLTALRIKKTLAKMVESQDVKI
Description: as §1

[4] = molecular target: T3, ALK1 (Bos taurus, UniProt A4FUX2); test: HTRF pSMAD1 cell-based ALK1 assay (BAOEC cells, BMP9 as agonist); design: species or system Bovine
T3 construct: The BAOEC cell line was employed for the measurement of ALK1 activity using BMP9 as the agonist; host or cells: BAOEC (bovine aortic endothelial cells)
T3 sequence (A4FUX2 23-503): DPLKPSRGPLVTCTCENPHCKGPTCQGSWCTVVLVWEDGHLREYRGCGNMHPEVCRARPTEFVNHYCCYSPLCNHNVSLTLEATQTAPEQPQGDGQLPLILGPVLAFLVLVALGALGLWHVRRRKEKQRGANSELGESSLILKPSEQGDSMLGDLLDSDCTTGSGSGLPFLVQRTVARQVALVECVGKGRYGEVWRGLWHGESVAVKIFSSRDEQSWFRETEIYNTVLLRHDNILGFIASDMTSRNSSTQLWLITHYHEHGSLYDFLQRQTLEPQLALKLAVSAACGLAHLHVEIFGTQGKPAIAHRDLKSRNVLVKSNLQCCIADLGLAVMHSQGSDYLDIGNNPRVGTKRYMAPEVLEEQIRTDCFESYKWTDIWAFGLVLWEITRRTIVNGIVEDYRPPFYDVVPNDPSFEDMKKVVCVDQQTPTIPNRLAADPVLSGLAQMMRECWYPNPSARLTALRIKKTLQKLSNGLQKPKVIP
Description: 2. HTRF Cell-Based ALK1 and ALK2 Assays in 384-Well Plate Format We have developed a cell based ALK1 kinase assay and a cell-based ALK2 assay. The BAOEC cell line was employed for the measurement of ALK1 activity using BMP9 as the agonist. The C2C12 cell line was selected for the measurement of ALK2 activity using BMP6 as the agonist. The kinase specificity was defined by the specific cell line and agonist. The kinase activity was determined by the status of SMD 1/5/8 phosphorylation stimulated by the agonist.
HyClone Fetal Bovine Serum was obtained from GE healthcare life sciences (Logan, Utah). BMP6 and BMP9 were purchased from R&D System. […] The compound plates and the white solid MB assay plates were purchased from Greiner Bio-one (Monroe, N.C.).
HTRF optimization experiments were performed in 384 well plate format. […] Pre-starved cells were then plated in 384 well plate in the starvation medium (containing in 0.1% FBS). After 4 hours, compounds were added to the assay plate and incubated for 30 minutes. The assay plate was then added with BMP6 for C2C12 cells or BMP9 for BAOEC cells and incubated for 30 minutes.
HTRF assay was performed to measure the status of SMAD 1 phosphorylation after stimulated with the agonist (Table 3). This HTRF phospho SMAD1 cell assay was developed and optimized for the homogenous detection of phospho SMAD 1 levels in cells. […] The plate was incubated at room temperature for overnight.

[5] = HTRF assay, BMP6 as agonist, C2C12 cells, read-out: BMP6 HTRF
[6] = cell-based assay, BMP6, read-out: Cell IC50 BMP6

SMILES	IC50 [1, 5]	IC50 [1, 6] [nM]	IC50 [2] [nM]	IC50 [3] [nM]	IC50 [4]
C[C@@H]1CNC[C@H](C)N1c1ccc(-c2cnc3c(-c4cccc5c(C(N)=O)cccc45)cnn3c2)cc1 [Compound 10, 5-(6-(4-((2S,6R)-2,6-dimethylpiperazin-1-yl)phenyl)pyrazolo[1,5-a]pyrimidin-3-yl)-1-naphthamide]	19 nM	4	1070	18	44 nM and 20 nM
N/C(=N/O)c1ccc(-c2cnn3cc(-c4ccc(N5CCNCC5)cc4)cnc23)c2ccccc12 [Compound 15, N′-hydroxy-4-(6-(4-(piperazin-1-yl)phenyl)pyrazolo[1,5-a]pyrimidin-3-yl)-1-naphthimidamide]		170	30400	1340	
CC(C)(CN1CCCCC1)Oc1ccc(-c2cnc3c(-c4cccc5c(C(N)=O)cccc45)cnn3c2)cc1 [Compound 18, 5-(6-(4-((2-methyl-1-(piperidin-1-yl)propan-2-yl)oxy)phenyl)pyrazolo[1,5-a]pyrimidin-3-yl)-1-naphthamide]		11	2340	35	
NS(=O)(=O)c1ccc(-c2cnn3cc(-c4ccc(CCN5CCCCC5)cc4)cnc23)c2ccccc12 [Compound 54, 4-(6-(4-(2-(piperidin-1-yl)ethyl)phenyl)pyrazolo[1,5-a]pyrimidin-3-yl)naphthalene-1-sulfonamide]		160	> 10000	> 10000	
C[C@@H]1CNC[C@H](C)N1c1ccc(-c2cnc3c(-c4cccc(S(C)(=O)=O)c4)cnn3c2)cc1 [Compound 82, 6-(4-((2R,6S)-2,6-dimethylpiperazin-1-yl)phenyl)-3-(3-(methylsulfonyl)phenyl)pyrazolo[1,5-a]pyrimidine]	308 nM	1	3200	540	190 nM
CC(O)c1cccc(-c2cnn3cc(-c4ccc(N5[C@H](C)CNC[C@@H]5C)cc4)cnc23)c1 (stereo partly drawn) [Compound 83, 1-(3-(6-(4-((2R,6S)-2,6-dimethylpiperazin-1-yl)phenyl)pyrazolo[5-a]pyrimidin-3-yl)phenyl)ethanol]		35	4400	520	100 nM
C[S+](=O)([O-])c1cccc(-c2cnn3cc(-c4ccc(OC5(CN6CCCCC6)COC5)cc4)cnc23)c1 [Compound 93, 3-(3-(methylsulfonyl)phenyl)-6-(4-((3-(piperidin-1-ylmethyl)oxetan-3-yl)oxy)phenyl)pyrazolo[1,5-a]pyrimidine]	230 nM	11	> 10000	1500	180 nM
C[C@@H]1CNC[C@H](C)N1c1ccc(-c2cnc3c(-c4cccc(C(C)(C)O)c4)cnn3c2)cc1 [Compound 103, 2-(3-(6-(4-((2R,6S)-2,6-dimethylpiperazin-1-yl)phenyl)pyrazolo[1,5-a]pyrimidin-3-yl)phenyl)propan-2-ol]	260 nM	18	4200	310	14 nM
CC[S+](=O)([O-])c1cccc(-c2cnn3cc(-c4ccc(N5[C@H](C)CNC[C@@H]5C)cc4)cnc23)c1 [Compound 104, 6-(4-((2R,6S)-2,6-dimethylpiperazin-1-yl)phenyl)-3-(3-(ethylsulfonyl)phenyl)pyrazolo[1,5-a]pyrimidine]	170 nM	1.3	4800	510	71 nM
CS(=O)(=O)c1cccc(-c2cnn3cc(-c4ccc(OCCN5CCCC5)cc4)cnc23)c1 [Compound 108, 3-(3-(methylsulfonyl)phenyl)-6-(4-(2-(pyrrolidin-1-yl)ethoxy)phenyl)pyrazolo[1,5-a]pyrimidine]		185	> 10000	2600	
C[S+](=O)([O-])c1cccc(-c2cnn3cc(-c4ccc(OCCN5CCCCC5)cc4)cnc23)c1 [Compound 109]		2	> 10000	1500	
CC(C)S(=O)(=O)c1cccc(-c2cnn3cc(-c4ccc(CCN5CCCCC5)cc4)cnc23)c1 [Compound 113, 3-(3-(isopropylsulfonyl)phenyl)-6-(4-(2-(piperidin-1-yl)ethyl)phenyl)pyrazolo[1,5-a]pyrimidine]		4.6	> 10000	4600	
CC(C)S(=O)(=O)c1cccc(-c2cnn3cc(-c4ccc(N5[C@H](C)CNC[C@@H]5C)cc4)cnc23)c1 [Compound 114, 6-(4-((2R,6S)-2,6-dimethylpiperazin-1-yl)phenyl)-3-(3-(isopropylsulfonyl)phenyl)pyrazolo[1,5-a]pyrimidine]		< 1	4100	1100	
CC1(c2ccc(-c3cnc4c(-c5cccc(S(C)(=O)=O)c5)cnn4c3)cc2)CCNCC1 [Compound 115, 6-(4-(4-methylpiperidin-4-yl)phenyl)-3-(3-(methylsulfonyl)phenyl)pyrazolo[1,5-a]pyrimidine]		11	9100	1700	
C[C@@H]1CNC[C@H](C)N1c1ccc(-c2cnc3c(-c4cccc(C[S+](C)(=O)[O-])c4)cnn3c2)cc1 [Compound 117, 6-(4-((2R,6S)-2,6-dimethylpiperazin-1-yl)phenyl)-3-(3-((methylsulfonyl)methyl)phenyl)pyrazolo[1,5-a]pyrimidine]		66	8500	3400	
CS(=O)(=O)c1cccc(-c2cnn3cc(-c4ccc(CN5CCCCC5)cc4)cnc23)c1 [Compound 123, 3-(3-(methylsulfonyl)phenyl)-6-(4-(piperidin-1-ylmethyl)phenyl)pyrazolo[1,5-a]pyrimidine]	150 nM and 130 nM	2.4	> 10000	> 10000	
CC(O)c1cccc(-c2cnn3cc(-c4ccc(OC5(CN6CCCCC6)CC5)cc4)cnc23)c1 (stereo not drawn) [Compound 143, 1-(3-(6-(4-(1-(piperidin-1-ylmethyl)cyclopropoxy)phenyl)pyrazolo[1,5-a]pyrimidin-3-yl)phenyl)ethanol]	230 nM		> 10000	1400	
